Measured values from patent US9289463B2, “Octreotide-modified nanomedicine for cancer treatment or cancer palliative care” (NANOSION CO., LTD., priority 2010, dated 2016).

Experiments:
[1] = system: TT cells; assay: Cytotoxicity test using CPT-11-encapsulating liposomes; type: cell-based; conditions: Homo sapiens
Procedure: TT cells were seeded into a 96-well plate at a density of 10^4 cells/well, and free CPT-11, 1.6Oct-CL or SL was added thereto at various concentrations prior to incubation for 48 hours, 72 hours and 96 hours. Next, after rinsing the cells with PBS, a coloring reagent (Cell Counting kit-8, Dojindo Laboratories) was added at 10 μL per well (100 μL), the absorbance at 450 nm was measured and IC50 (μM) was calculated.

[2] = system: TT cells; assay: Effect of CPT-11-encapsulating liposomes in vivo, TT cell tumor-bearing mice (four mice per group)
Procedure: The following test was conducted to examine the in vivo effect of CPT-11-encapsulating Oct-modified liposomes. After transplanting 10^7 TT cells into mice (ICR nu/nu mice, 6-week-old, female, Oriental Yeast Co., Ltd.), tumors with tumor volumes of […] formed. To four mice in each group there were administered unmodified liposomes (CL) at 10 mg/kg body weight, as the CPT-11 amount, liposomes modified with 1.6 mol % Oct-PEG-DSPE (1.6Oct-CL), and liposomes modified with 1.6 mol % Oct-PEG-DSPE and 0.9% mol % PEG-DSPE (1.6Oct-SL). The administration was twice (1st and 4th days) through the caudal vein. As a control there was administered physiological saline and free CPT-11 (30 mg/kg), three times (1st, 4th and 7th days). The tumor size and body weight were periodically measured. […] The column headed “% ILS” in Table 3 contains the values calculated by the formula: [(mean survival days of treated group)−(mean survival days of control group)/(mean survival days of control group)]×100(%), with physiological saline as the control. The column headed “Median” in Table 3 contains the median values for survival time (days) for each group consisting of N animals.

[3] = system: TT cells; assay: Cytotoxicity test using non-drug-encapsulating liposomes; type: cell-based, human; conditions: 0.042-8.4 μM Oct, 96 hours, no drug encapsulated
Procedure: Next, a cytotoxicity test was conducted using non-CPT-11-encapsulating liposomes, in order to evaluate the effect of the ligand (Oct) on cytotoxicity. […] After rinsing the cells with PBS, a coloring reagent was added and the absorbance at 450 nm was measured.
In FIG. 4, the four bars for each concentration are, from the left, the cell survival rates (%) for free Oct, Empty 1.6Oct-CL, Empty 4.4Oct-CL and Empty SL, respectively.

[4] = system: TT cells; assay: Competitive inhibition test of intracellular uptake; type: cell-based, human; conditions: free Oct in 20-fold molar excess (84 nmol/ml), 37° C., 2 hours
Procedure: A competitive inhibition test was conducted to examine whether or not the intracellular uptake observed in Example 2 takes place via somatostatin receptor (SSTR).
The competitive inhibition is shown schematically in FIG. 2(A).

[5] = liposomes 10 mg/kg as CPT-11 twice, free CPT-11 30 mg/kg three times

Row | SMILES | IC50 ([1]; 48 hrs incubation) [µM] | IC50 ([1]; 72 hrs incubation) [µM] | IC50 ([1]; 96 hrs incubation) [µM] | Survival time Median ([2]; liposomes 10 mg/kg as CPT-11, caudal vein, 1st and 4th days, free CPT-11 30 mg/kg, 1st, 4th and 7th days) | survival time and survival rate (life-lengthening effect) [2, 5] | tumor size [2, 5] | Survival time % ILS ([2]; physiological saline as control, liposomes 10 mg/kg as CPT-11 twice, free CPT-11 30 mg/kg three times) [%] | cytotoxicity (cell survival rate) [3] | effect of competitor on intracellular uptake of DXR-encapsulating 1.6Oct-CL [4]
1 | CCc1c2c(nc3ccc(OC(=O)N4CCC(N5CCCCC5)CC4)cc13)-c1cc3c(c(=O)n1C2)COC(=O)[C@]3(O)CC [Free CPT-11, irinotecan] | 13.4 | 6.6 | 2.2 | 88 (4) days | no life-lengthening effect was observed | tumor size increased | 30.4 |  | 
2 | C[C@@H](O)[C@@H]1NC(=O)[C@H](CCCCN)NC(=O)[C@@H](Cc2c[nH]c3ccccc23)NC(=O)[C@H](Cc2ccccc2)NC(=O)[C@@H](NC(=O)[C@H](N)Cc2ccccc2)CSSC[C@@H](C(=O)N[C@H](CO)[C@@H](C)O)NC1=O [free Oct, octreotide] |  |  |  |  |  |  |  | Cytotoxicity was observed | did not affect
